Laboratory results as given in PMC10319809, “Chronic UCN2 treatment desensitizes CRHR2 and improves insulin sensitivity” (Nature Communications, 2023).
Values joined by “and” are separate entries in the source; they are usually repeats but may differ in a detail not shown here. Equal values may be shown once. Where no end group is shown, it is not given here.

Key:
[1] = test system: soleus muscle; test: Antisauvagine-30 pre-treatment, [3H]2DG uptake in soleus muscle; type: in vivo, mouse; details: ASG30 300 ug/kg IP pre-treatment, UCN2 1 mg/kg, insulin 0.75 IU/kg
Method: To determine 2-deoxy-glucose (2DG) uptake in soleus muscle, mice were fasted for 5 h and anaesthetized with isoflurane. Animals were injected IP with 300 ug/kg of ASG30 or an equivalent volume of water. […] 15 min following 2DG administration, blood was collected via intracardiac stick and soleus and gastrocnemius muscles were dissected and snap frozen in liquid nitrogen. Samples were stored at −80 C until processing. Blood was treated with BaOH2 and ZnSO4 and after centrifugation, radioactivity was determined via liquid scintillation counting (Tri-Carb 5110TR, PerkinElmer, Waltham, MA). Tissue was homogenized and mixed with water or BaOH2 and ZnSO4 to determine total and unphosphorylated 2DG content.
(§1) Blood Glucose (mg/dL) +Veh +Veh
(§2) Supplementary Fig. 1. Antisauvagine-30 Blunts Effects of UCN2 on Glucose Uptake.
(§3) (A) Blood glucose during oGTT. Oral glucose gavage occurred at t = 0. At t = -30 animals were
(§4) treated with either Antisauvagine-30 (ASG30) or water. At t = -20 animals were treated with
(§5) either Saline, UCN2 alone, ASG30 alone, or ASG30 and UCN2 together. Mean±SD, n = 6.
(§6) Significance was assessed by one-way ANOVA and Tukey HSD.
(§7) (B) [3H]2-Deoxyglucose uptake by the soleus muscle in insulin-treated or untreated mice, following
(§8) pre-treatment of saline, UCN2, or ASG30 and UCN2. Mean±SD, n = 6.
(§9) Significance was assessed by one-way ANOVA and Tukey HSD. * P < 0.05, ** P < 0.01, *** P < […]

[2] = test system: mice; test: Antisauvagine-30 pre-treatment, oGTT with UCN2; type: in vivo, mouse
Method: For glucose tolerance tests (GTTs), animals were fasted for 8 h with ad libitum access to water. Fasting glucose measurements were taken before 300ug/kg IP dose of ASG30 (Tocris Biosciences, Bristol, UK, Catalog No: 2071) or an equivalent volume of sterile distilled water. 10 min later animals received a 1 mg/kg IP dose of UCN2 or an equivalent volume of saline co-dosed with 300ug/kg of ASG30 or an equivalent volume of water. 20 min later animals received a […] oral glucose dose. Blood glucose measurements were taken via tail nick using the AlphaTRAK 2 Glucose Monitoring System (Zoetis, Parsippany-Troy Hills, NJ) at 10, 30, 60, and 120 min after dose.
as §1, §2, §3, §4, §5, §6, §7, §8, §9

[3] = test system: CRHR2-expressing HEK293 cells; test: FAM-UCN2 internalization, fluorescence and live cell imaging of HEK293 cells; type: cell-based, human; details: HEK293 cells with or without CRHR2, over 24 h
[4] = test system: mouse soleus muscle; test: Ex vivo soleus muscle [3H]2-deoxyglucose uptake; details: individual muscles
Method: Soleus muscle was removed from fed animals anesthetized by an intraperitoneal injection of pentobarbital (10 mg/100 g body weight). Dissected soleus muscles were suspended at 5 mN of tension in incubation chambers (Model 610/820 M, Danish Myo-Technology, Denmark) containing Krebs-Ringer-Buffer supplemented with 0.1% BSA, 2 mM pyruvate and 8 mM Mannitol. During the entire incubation period the KRB was maintained at 30 °C and oxygenated with 95% O2 and 5% CO2. Following 10 min of pre-incubation muscles were incubated in Krebs buffer +/− 100 nM (−7.0 log[M]) UCN2. At the next time point, 30 min later, muscles were placed in baths containing Krebs buffer +/− 100 nM (−7.0 [M]) UCN2. At the next time point, 15 min later, muscles were placed in baths containing Krebs buffer +/− 100 nM (−7.0 log[M]) UCN2 + /− 60 nM Insulin (Actrapid, Novo Nordisk, Bagsvaerd, Denmark) for 15 min. For the ex vivo glucose uptake studies, 1 mM [^3H]2-deoxyglucose (Perkin-Elmer) and 7 mM [^14C]mannitol (Perkin-Elmer) was also added at this time. Muscles that were in saline in the first bath, saline in the second bath, and saline in the third bath were assigned to the SSS group. Muscles that were in saline in the first bath, saline in the second bath, and UCN2 in the third bath were assigned to the SSU group. Muscles that were in UCN2 in the first bath, saline in the second bath, and UCN2 in the third bath were assigned to the USU group. Muscles that were in saline in the first bath, UCN2 in the second bath, and UCN2 in the third bath were assigned to the SUU group. Following incubation, muscles were harvested, washed in ice-cold KRB and immediately frozen in liquid nitrogen.
Glucose uptake was determined in muscle protein lysates by assessing the accumulation of [^3H]2-deoxyglucose with the use of [^14C]mannitol to correct for the extracellular space. Radioactivity was measured by liquid scintillation counting.

[5] = molecular target: T1, unmodified CRHR2a (corticotropin-releasing hormone receptor 2, alpha isoform) (human) (UniProt Q13324)
T1 sequence: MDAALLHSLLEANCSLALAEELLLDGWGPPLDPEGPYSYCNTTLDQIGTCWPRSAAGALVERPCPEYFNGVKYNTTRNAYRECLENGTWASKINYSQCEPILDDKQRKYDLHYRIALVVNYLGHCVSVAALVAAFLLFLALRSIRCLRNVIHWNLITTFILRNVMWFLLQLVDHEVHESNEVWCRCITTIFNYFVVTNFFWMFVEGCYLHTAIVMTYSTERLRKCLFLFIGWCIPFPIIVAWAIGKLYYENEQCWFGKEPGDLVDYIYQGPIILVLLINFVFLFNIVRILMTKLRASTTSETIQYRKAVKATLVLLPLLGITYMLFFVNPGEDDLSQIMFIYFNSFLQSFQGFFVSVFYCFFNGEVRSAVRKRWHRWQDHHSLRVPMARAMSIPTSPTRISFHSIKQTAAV

Antisauvagine-30 [ASG30] was tested, and the “insulin-mediated glucose uptake in soleus muscle in vivo” value [1] was “restored insulin-mediated glucose uptake”, the “glucose tolerance in UCN2-treated animals during oGTT” value ([2]; ASG30 300ug/kg IP pre-treatment) was “improved glucose tolerance” and the “effect on UCN2-induced blood glucose” value ([2]; ASG30 300ug/kg IP pre-treatment and co-dose with 1 mg/kg UCN2) was “significantly blunted UCN2’s effects on blood glucose”.

“FAM-UCN2: Fluorescently labeled UCN2 (IVLSLDVPIGLLQILLEQARARAAREQATTNARILARVGHC; ends and bridges not checked; also: FAM label, position not given here)” was tested, and the “internalization of the labeled ligand” value [3] was “internalized in a receptor-dependent manner”.

In the case of Insulin, the “2DG Uptake” value ([4]; Fig 6C, Vehicle +Insulin) is reported as 2.36 µmol/g/h and 3.79 µmol/g/h and 4.38 µmol/g/h and 3.22 µmol/g/h and 3.39 µmol/g/h and the “2DG Uptake” value ([4]; Fig 6D, Insulin-SSS) is reported as 3.619 µmol/g/h and 3.768 µmol/g/h and 3.935 µmol/g/h.

B1: Urocortin 2 (UCN2) (ligand)
chain: IVLSLDVPIGLLQILLEQARARAAREQATTNARILARVGHC
Molecule B1 has a Gs activation, ebBRET biosensor (Gas-RlucII leaving the plasma membrane), HEK293 cells with increasing UCN2; EC50 of UCN2 [5] of 0.1 nM, a β-Arrestin 1 recruitment, ebBRET effector membrane translocation assay, HEK293 cells with increasing UCN2; EC50 of UCN2 [5] of 6.5 nM and a β-Arrestin 2 recruitment, ebBRET effector membrane translocation assay, HEK293 cells with increasing UCN2; EC50 of UCN2 [5] of 6.1 nM.
